Data: patent publication US8623909B2, “Prophylactic/therapeutic agents for lifestyle-related diseases” (priority 2008, dated 2014)
Marks after values point to notes of the source that are not given here.

Columns and labels:
PSA mRNA = PSA mRNA expression level in ORX rat prostates; type: in vivo; conditions: ORX rats; for PSA mRNA/GAPDH mRNA in prostates: 21 days, solvent 1.0, sham 114.4
Source text: (§1) After housing the animals, the animals were anesthetized with ether, and underwent bilateral orchiectomy (orchiectomized rats: ORX) or a sham treatment. After awaking from the anesthesia, the animals were assigned to test groups of 3 to 5 animals each. […] After 21 days, the rats were sacrificed by exsanguination from the abdominal artery, the ventral prostates and anal levator muscle were excised and weighed followed by immersing in RNAlater (Nacalai Tesque) for extraction of RNA. In addition, soft tissue was removed from the right femur, and immersed in 75% ethanol followed by storage for subsequent measurement of the bone mineral density. Moreover, liver and visceral fat tissue were collected and immersed in RNAlater for RNA extraction.
(§2) Total RNA in various tissues of the ORX rats was isolated using the RNeasy Mini Kit or RNeasy Fibrous Tissue Mini Kit (Qiagen). 1 μg of this total RNA was subjected to reverse transcription using the QuantiaTect Reverse Transcription Kit (Qiagen). Next, cDNA was subjected to real-time PCR analysis using LightCycler (Roche Diagnostics) and each of the transcription products was quantified. Furthermore, PCR was carried out in 20 μl of a reaction mixture under the following conditions using SYBR Premix Ex Taq (Takara Biotechnology): 50 cycles consisting of denaturation for 5 seconds at 95° C., annealing for 20 seconds at 60° C. and elongation for 25 seconds at 72° C. In addition, glyceraldehyde-3-phosphate dehydrogenase (GAPDH) mRNA was simultaneously amplified as an internal standard, and the real-time PCR value of each transcription product were calculated as a relative value based on GAPDH.
The PSA mRNA expression levels in the prostates of the ORX rats obtained in the aforementioned section (4)-1) were measured according to the method of section (4)-3).

PPARδ mRNA = PPARδ mRNA in anal levator muscle of ORX rats; type: in vivo, rat; conditions: for PPARδ mRNA/GAPDH mRNA in anal levator muscle: solvent 1.0, sham 0.5; for Effect on PPARδ mRNA expression in anal levator muscle (in words): dihydrotestosterone 1 and 10 mg/kg, compound of formula (Ia) 10 mg/kg
Procedure: (§3) 11-week-old, male Sprague-Dawley (SD) rats (320 to 340 g, purchased from Charles River Japan) were housed for 1 week in a room maintained at a light-dark cycle of 12 hours per day and controlled at a set temperature and humidity while allowing free access to a commercially available standard rodent diet and water.
(§4) After housing the animals, the animals were anesthetized with ether, and underwent bilateral orchiectomy (orchiectomized rats: ORX) or a sham treatment. After awaking from the anesthesia, the animals were assigned to test groups of 3 to 5 animals each. Starting on the day after surgery, the animals were subcutaneously injected once a day with an injection solution of the test compound (prepared by dissolving the test compound in a small amount of DMSO and diluting with olive oil for animal testing (consisting of 95% olive oil and 5% DMSO)) at the rate of 0.1 ml/100 g of body weight. After 21 days, the rats were sacrificed by exsanguination from the abdominal artery, the ventral prostates and anal levator muscle were excised and weighed followed by immersing in RNAlater (Nacalai Tesque) for extraction of RNA. In addition, soft tissue was removed from the right femur, and immersed in 75% ethanol followed by storage for subsequent measurement of the bone mineral density. Moreover, liver and visceral fat tissue were collected and immersed in RNAlater for RNA extraction.
as §2
In addition, expression levels of peroxisome proliferator activating factor receptor-delta (PPARδ) mRNA in anal levator muscle were also measured. This is because this nuclear receptor has been indicated to be related to β-oxidation of fatty acids and energy consumption in skeletal muscle (Proc. Natl. Acad. Sci. USA, 100, 15924-15929). Furthermore, measurements were carried out using a similar method as that previously described.

ORX rats [1] = experiment: Femoral bone mineral density in ORX rats; type: in vivo, rat; conditions: solvent 465.3, sham 517.1
Procedure: as §3, §4
(§5) The anabolic effect of compounds was studied by using as indicators changes in anal levator muscle weight and bone mineral density (BMD) of the femur and vertebra in the ORX rats treated in the aforementioned section (4)-1).
(§6) BMD value of epiphyseal cancellous bone of the femur and vertebra of ORX rats treated in the aforementioned section (4)-1) were measured using Scan Xmate-A100S (Comscantecno).

ORX rats [2] = experiment: Vertebral bone mineral density in ORX rats; type: in vivo, rat; conditions: for Vertebral BMD: solvent 762.7, sham 770.8
Procedure: as §3, §4, §5, §6

ORX rats [3] = experiment: Plasma LH concentration in ORX rats; type: in vivo, rat; conditions: for Effect on LH levels (in words): 1 and 10 mg/Kg; for Plasma LH concentration: solvent 10.3, sham 1.7
Source text: as §1
Characteristics of the effect of compounds on the pituitary gland were investigated by measuring plasma concentrations of LH and FSH in ORX rats treated in the aforementioned section (4)-1).

ORX rats [4] = experiment: Plasma insulin level in ORX rats; type: in vivo, rat; conditions: for Effect on insulin levels (in words): 1 and 10 mg/Kg; for Plasma insulin concentration: solvent 1.0, sham 1.6
Source text: as §1
(§7) The inventors of the present invention measured total plasma adiponectin levels in ORX rats treated in the aforementioned section (4)-1). Plasma insulin levels were also measured simultaneously.

ORX rats [5] = experiment: Plasma cholesterol level in ORX rats; type: in vivo, rat; conditions: for Effect on cholesterol levels (in words): 1 and 10 mg/Kg; for Plasma cholesterol concentration: solvent 78.0, sham 64.8
Source text: as §1
Plasma triglyceride and cholesterol levels were measured to characterize the metabolic profiles of ORX rats treated in the aforementioned section (4)-1).

FAS mRNA = FAS mRNA level in liver and visceral fat of ORX rats; type: in vivo, rat
Source text: as §1, §2
(§8) In addition, mRNA levels of insulin receptor substrate 2 (IRS-2) in the liver were also measured.

CPT-1 mRNA = CPT-1 mRNA level in liver and visceral fat of ORX rats; type: in vivo, rat
Source text: as §1, §2, §8

IRS-2 mRNA = IRS-2 mRNA level in liver of ORX rats; type: in vivo, rat; conditions: for IRS-2 mRNA/GAPDH mRNA level in rat liver: solvent 4.8, sham 1.0
Source text: as §1, §2, §8

UCP-1 mRNA = UCP-1 mRNA level in visceral fat of ORX rats; type: in vivo, rat; conditions: for UCP-1 mRNA/GAPDH mRNA level in rat visceral fat: solvent 1.0, sham 1.0
Procedure: as §3, §4, §2
Thus, UCP-1 mRNA levels in rat visceral fat were also measured for the purpose of confirmation.

ORX rats [6] = experiment: Total plasma adiponectin level in ORX rats; type: in vivo, rat; conditions: for Plasma adiponectin concentration: solvent 2.2, sham 1.3
Procedure: as §3, §4, §7

[7] = liver, 1 mg/Kg, solvent 0.9, sham 1.0
[8] = liver, 10 mg/Kg, solvent 0.9, sham 1.0
[9] = visceral fat, 1 mg/Kg, solvent 0.5, sham 1.0
[10] = visceral fat, 10 mg/Kg, solvent 0.5, sham 1.0
[11] = liver, 1 mg/Kg, solvent 1.4, sham 1.0
[12] = liver, 10 mg/Kg, solvent 1.4, sham 1.0
[13] = visceral fat, 1 mg/Kg, solvent 1.7, sham 1.0
[14] = visceral fat, 10 mg/Kg, solvent 1.7, sham 1.0

| Compound | PSA mRNA/GAPDH mRNA in prostates (PSA mRNA; 1 mg/Kg s.c. once a day) | PSA mRNA/GAPDH mRNA in prostates (PSA mRNA; 10 mg/Kg s.c. once a day) | PPARδ mRNA/GAPDH mRNA in anal levator muscle (PPARδ mRNA; 1 mg/Kg) | PPARδ mRNA/GAPDH mRNA in anal levator muscle (PPARδ mRNA; 10 mg/Kg) | Effect on PPARδ mRNA expression in anal levator muscle (in words) (PPARδ mRNA) | Femoral BMD (ORX rats [1]; 1 mg/Kg) | Femoral BMD (ORX rats [1]; 10 mg/Kg) | Vertebral BMD (ORX rats [2]; 1 mg/Kg) | Vertebral BMD (ORX rats [2]; 10 mg/Kg) | Effect on LH levels (in words) (ORX rats [3]) | Effect on insulin levels (in words) (ORX rats [4]) | Effect on cholesterol levels (in words) (ORX rats [5]) | FAS mRNA/GAPDH mRNA level (FAS mRNA; [7]) | FAS mRNA/GAPDH mRNA level (FAS mRNA; [8]) | FAS mRNA/GAPDH mRNA level (FAS mRNA; [9]) | FAS mRNA/GAPDH mRNA level (FAS mRNA; [10]) | CPT-1 mRNA/GAPDH mRNA level (CPT-1 mRNA; [11]) | CPT-1 mRNA/GAPDH mRNA level (CPT-1 mRNA; [12]) | CPT-1 mRNA/GAPDH mRNA level (CPT-1 mRNA; [13]) | CPT-1 mRNA/GAPDH mRNA level (CPT-1 mRNA; [14]) | also measured |
| --- | --- | --- | --- | --- | --- | --- | --- | --- | --- | --- | --- | --- | --- | --- | --- | --- | --- | --- | --- | --- | --- |
| C[C@]12CCC(=O)C[C@@H]1CC[C@@H]1[C@@H]2CC[C@]2(C)[C@@H](O)CC[C@@H]12 [Dihydrotestosterone, 5α-dihydrotestosterone, reference compound] | 211.4**^,## | 209.8**^,## | 0.9 | 0.5 | inhibited this expression dose-dependently | 472.0 mg/mL | 473.6 mg/mL | 768.4 mg/mL | 763.2 mg/mL | inhibited LH levels | increased the insulin levels | lowered cholesterol levels | 8.0 | 7.1 | 2.3 | 3.5*^,# | 1.3 | 0.4 | 1.7 | 0.8 | Increase of prostate PSA mRNA level in comparison with the sham treatment group (PSA mRNA; 1 and 10 mg/Kg): about 1.8 fold; Effect on vertebral BMD (in words) (ORX rats [2]; 1 and 10 mg/Kg): did not have an effect on vertebral BMD; Effect on liver IRS-2 mRNA level (in words) (IRS-2 mRNA): decreased; IRS-2 mRNA/GAPDH mRNA level in rat liver (IRS-2 mRNA; 1 mg/Kg): 5.1; IRS-2 mRNA/GAPDH mRNA level in rat liver (IRS-2 mRNA; 10 mg/Kg): 0.8; Effect on visceral fat UCP-1 mRNA levels (in words) (UCP-1 mRNA): had hardly any effect on UCP-1 mRNA levels; UCP-1 mRNA/GAPDH mRNA level in rat visceral fat (UCP-1 mRNA; 1 mg/Kg): 0.8; UCP-1 mRNA/GAPDH mRNA level in rat visceral fat (UCP-1 mRNA; 10 mg/Kg): 0.9 |
| CC(=O)[C@H]1CCC2C3CCc4c(C)cccc4C3CC[C@@]21C (some centres unmarked) [Compound of formula (Ia)] | 1.0** | 1.2** | 0.9 | 1.7* | enhanced this expression | 447.2 mg/mL | 454.0 mg/mL | 769.5 mg/mL | 770.3 mg/mL | did not inhibit LH levels, but rather increased LH levels dose-dependently | this activity was milder | did not have an effect on cholesterol levels | 0.7 | 0.5 | 0.3* | 0.6 | 3.2**^,# | 4.2* | 2.0 | 2.6 | Change in prostate PSA mRNA levels (in words) (PSA mRNA; 1 and 10 mg/Kg): no changes observed; Femoral BMD (ORX rats [1]; 30 mg/Kg): 475.9 mg/mL; Vertebral BMD (ORX rats [2]; 30 mg/Kg): 775.1 mg/mL; Plasma LH concentration (ORX rats [3]; 1 mg/Kg): 12.6** ng/mL; Plasma LH concentration (ORX rats [3]; 10 mg/Kg): 19.9*^,## ng/mL; Plasma adiponectin concentration (ORX rats [6]; 1 mg/Kg): 2.2* μg/mL; Plasma adiponectin concentration (ORX rats [6]; 10 mg/Kg): 2.1* μg/mL; Effect on castration-induced increase of plasma adiponectin (in words) (ORX rats [6]; 1 or 10 mg/kg): did not demonstrate such inhibitory activity on the adiponectin levels; Plasma insulin concentration (ORX rats [4]; 1 mg/Kg): 1.5 µg/mL; Plasma insulin concentration (ORX rats [4]; 10 mg/Kg): 2.9 µg/mL; Plasma cholesterol concentration (ORX rats [5]; 1 mg/Kg): 66.0 mg/dL; Plasma cholesterol concentration (ORX rats [5]; 10 mg/Kg): 71.5 mg/dL; FAS mRNA levels (in words) (FAS mRNA; liver and visceral fat): also lower; CPT-1 mRNA levels (in words) (CPT-1 mRNA; liver and visceral fat): higher in comparison with dihydrotestosterone; Effect on liver IRS-2 mRNA level (in words) (IRS-2 mRNA): increased; IRS-2 mRNA/GAPDH mRNA level in rat liver (IRS-2 mRNA; 1 mg/Kg): 10.6**; IRS-2 mRNA/GAPDH mRNA level in rat liver (IRS-2 mRNA; 10 mg/Kg): 8.8*; Effect on visceral fat UCP-1 mRNA levels (in words) (UCP-1 mRNA): this increase was not significant; UCP-1 mRNA/GAPDH mRNA level in rat visceral fat (UCP-1 mRNA; 1 mg/Kg): 1.7; UCP-1 mRNA/GAPDH mRNA level in rat visceral fat (UCP-1 mRNA; 10 mg/Kg): 1.5 |
